Data published in patent US8367328B2, “Method for synthesizing DNA” (Takara Bio Inc., priority 1998, dated 2013).

Molecular target: T1, Pfu DNA Polymerase II (Pyrococcus furiosus, UniProt P81409+P81412)
T1 construct: made in house; host or cells: Escherichia coli JM109/pFU1001 (FERM BP-5579)
T1 sequence (P81409 1-1263): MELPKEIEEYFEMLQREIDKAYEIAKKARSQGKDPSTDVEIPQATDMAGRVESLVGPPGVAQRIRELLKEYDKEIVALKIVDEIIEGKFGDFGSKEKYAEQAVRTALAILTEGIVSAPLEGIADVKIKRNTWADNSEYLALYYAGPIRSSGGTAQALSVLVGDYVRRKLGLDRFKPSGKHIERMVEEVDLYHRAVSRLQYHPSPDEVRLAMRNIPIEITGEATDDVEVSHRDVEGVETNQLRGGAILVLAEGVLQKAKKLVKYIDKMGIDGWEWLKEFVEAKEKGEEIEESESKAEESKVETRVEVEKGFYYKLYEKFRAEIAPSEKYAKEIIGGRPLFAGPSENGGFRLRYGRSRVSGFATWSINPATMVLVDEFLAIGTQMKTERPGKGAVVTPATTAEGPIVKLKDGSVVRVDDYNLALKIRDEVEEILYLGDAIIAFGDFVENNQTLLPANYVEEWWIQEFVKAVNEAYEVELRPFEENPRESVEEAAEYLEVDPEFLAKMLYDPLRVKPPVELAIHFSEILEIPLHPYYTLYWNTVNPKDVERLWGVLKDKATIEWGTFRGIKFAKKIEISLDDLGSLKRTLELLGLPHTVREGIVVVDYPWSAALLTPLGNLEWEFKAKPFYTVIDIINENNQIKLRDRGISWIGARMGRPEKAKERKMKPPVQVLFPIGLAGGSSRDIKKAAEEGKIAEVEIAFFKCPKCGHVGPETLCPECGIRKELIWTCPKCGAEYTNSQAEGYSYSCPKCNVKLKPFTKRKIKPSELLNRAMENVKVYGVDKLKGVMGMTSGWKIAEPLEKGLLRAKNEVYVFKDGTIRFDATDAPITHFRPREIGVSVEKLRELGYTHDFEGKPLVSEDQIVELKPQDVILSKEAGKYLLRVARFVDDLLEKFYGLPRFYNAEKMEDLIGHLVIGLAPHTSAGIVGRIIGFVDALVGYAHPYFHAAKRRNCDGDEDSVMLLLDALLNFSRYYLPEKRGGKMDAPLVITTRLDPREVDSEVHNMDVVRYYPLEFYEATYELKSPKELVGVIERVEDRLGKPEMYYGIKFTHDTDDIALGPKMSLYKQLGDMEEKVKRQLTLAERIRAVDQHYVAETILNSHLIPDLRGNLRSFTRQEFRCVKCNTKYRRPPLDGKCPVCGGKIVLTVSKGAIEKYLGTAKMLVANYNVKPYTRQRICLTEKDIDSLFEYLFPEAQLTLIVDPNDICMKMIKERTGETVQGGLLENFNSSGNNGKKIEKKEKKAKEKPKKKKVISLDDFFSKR
T1 sequence (P81412 1-613): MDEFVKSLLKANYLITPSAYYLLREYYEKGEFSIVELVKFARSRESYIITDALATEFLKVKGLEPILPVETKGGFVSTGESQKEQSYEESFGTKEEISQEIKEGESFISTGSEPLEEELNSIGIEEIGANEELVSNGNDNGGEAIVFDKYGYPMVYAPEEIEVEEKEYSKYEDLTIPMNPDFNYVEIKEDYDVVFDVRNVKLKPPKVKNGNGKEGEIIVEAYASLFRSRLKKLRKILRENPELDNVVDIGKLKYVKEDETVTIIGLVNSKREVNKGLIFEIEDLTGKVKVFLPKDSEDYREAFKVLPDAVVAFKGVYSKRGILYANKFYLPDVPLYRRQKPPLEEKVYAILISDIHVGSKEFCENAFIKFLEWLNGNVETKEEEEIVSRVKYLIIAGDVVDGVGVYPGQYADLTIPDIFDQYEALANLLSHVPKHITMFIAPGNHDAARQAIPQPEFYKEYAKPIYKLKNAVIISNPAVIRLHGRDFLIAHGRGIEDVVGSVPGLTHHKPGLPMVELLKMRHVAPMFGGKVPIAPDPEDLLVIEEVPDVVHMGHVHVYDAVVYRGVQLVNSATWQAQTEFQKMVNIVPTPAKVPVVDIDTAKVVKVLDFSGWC
Experiment: PCR with Pfu DNA Polymerase II in the presence of acidic substances (λDNA template)
Assay type: biochemical
Details: 1 kb fragment, 500 pg λDNA, primers λ1/λ3, 30 cycles 98°C 5 s–66°C 15 s
Protocol: A reaction mixture comprising λDNA as a template, primers λ1 and λ3 as a primer pair, and Pfu DNA Polymerase II as DNA polymerase was prepared, and PCR was carried out. The composition of the reaction mixture is as follows.
10 mM Tris-hydrochloric acid (pH 9.2), 75 mM potassium chloride, 6 mM magnesium chloride, 0.4 mM each of dATP, dCTP, dGTP and dTTP, 0.01% BSA, 1.25 U of Pfu DNA Polymerase II, 500 pg of λDNA, and 5 pmol each of primers λ1 and λ3 (a final volume being 25 μl). […]
Using the sulfated-fucose-containing Polysaccharide-F obtained in Example 6 described above, dextran sulfate powder (manufactured by Onco), or sodium alginate (100 to 150 centipoises, manufactured by Wako Pure Chemicals), the effects of these acidic substances on the activity of Pfu DNA Polymerase II were examined. A reaction mixture comprising λDNA as a template, primers λ1 and λ2 as a primer pair, and Pfu DNA Polymerase II as DNA polymerase was prepared, and PCR was carried out. The composition of the reaction mixture is as follows.
(§1) 10 mM Tris-hydrochloric acid, pH 9.2, 75 mM potassium chloride, 6 mM magnesium chloride, 0.4 mM each of dATP, dCTP, dGTP and dTTP, 0.01% BSA, 1.25 U of Pfu DNA Polymerase II, 100 pg of λDNA, and 5 pmol each of primers λ1 and λ2 (a final volume being 25 μl). Further, 10 ng of the sulfated-fucose-containing polysaccharide-F, 10 ng of dextran sulfate powder, or 1 μg of sodium alginate was respectively added to the above reaction mixture.
(§2) The reaction in 25 cycles was carried out for each of these reaction mixtures, wherein one cycle of reaction comprises a process consisting of 98° C., 5 seconds—66° C., 15 seconds. Thereafter, 5 μl of the resulting reaction mixture was subjected to electrophoresis on 1% agarose gel containing ethidium bromide in an amount of 0.00005%, whereby an amplified fragment was confirmed.
Further, studies were conducted on the effects of the sulfated-fucose-containing polysaccharide-F obtained in Example 6 described above, the sulfated-fucose-containing polysaccharide-U obtained in Example 7 described above, or sodium polyglutamate (manufactured by Sigma) as an acidic substance. A reaction mixture for PCR was prepared in the same manner as described above except for changing the amount of template λDNA to 500 pg and the primer pairs to primers λ1 and λ3. Five nanograms of the sulfated-fucose-containing polysaccharide-F, 5 ng, 10 ng, 20 ng or 30 ng each of the sulfated-fucose-containing polysaccharide-U, or 250 ng, 500 ng, 750 ng or 1000 ng each of sodium polyglutamate was respectively added to the above reaction mixture.
as §2, with “reaction” for “reaction in 25 cycles”, “in 30 cycles,” for “for each of these reaction mixtures,”, “After the termination of the reaction,” for “Thereafter,”
Using the sulfated-fucose-containing polysaccharide-F obtained in Example 6 described above, the effects on the activity of Pfu DNA Polymerase II were examined. A reaction mixture comprising λDNA as a template, primers λ1 and λ2 as a primer pair, and Pfu DNA Polymerase II as DNA polymerase was prepared, and PCR was carried out. The composition of the reaction mixture is as follows.
as §1, with “500” for “100”, “polysaccharide-F” for “polysaccharide-F, 10 ng of dextran sulfate powder, or 1 μg of sodium alginate”
The reaction in 30 cycles was carried out for each of these reaction mixtures, wherein one cycle of reaction comprises a process consisting of 98° C., 5 seconds—66° C., 15 seconds. […]

sodium polyglutamate
Amplification Results (amount added 250 ng): + (Amplification being observed) | Amplification Results (amount added 500 ng): + (Amplification being observed) | Amplification Results (amount added 750 ng): ++ (Intensive amplification being observed) | Amplification Results (amount added 1000 ng): + (Amplification being observed)
